How the values were obtained:
[1] = system: OCRL1-depleted HeLa cells; test: Abscission assay (time-lapse) in OCRL1-depleted HeLa cells; type: cell-based, human; details: OCRL1 siRNA-depleted HeLa cells, 25 μM, 60 hours time-lapse recording, compared to DMSO alone
Description: (§1) Further tests were carried out using human cellular models for the Lowe syndrome.
Human HeLa epithelial cells were grown in DMEM medium (Gibco BRL) supplemented with 10% fetal bovine serum, 100 U/ml penicillin/streptomycin and 2 mM glutamine at 37° C. HeLa cells were depleted in OCRL1 by transfecting control siRNAs (5′-CGUACGCGGAAUACUUCGA-3′) or OCRL1 RNAi (5′-GAAAGGAUCAGUGUCGAUA-3′) specific siRNAs for 72 h before imaging using HiPerFect reagents (Qiagen).
(§2) Cell divisions were recorded by time-lapse microscopy using a Nikon Eclipse Ti Inverted Microscope. The curves represent the cumulative distribution of the abscission times in the indicated cell populations (see FIG. 5).

[2] = system: wildtype zebrafish embryos; test: Pronephric uptake of Alexa 488-10 kDa dextran in wildtype zebrafish embryos; type: in vivo; details: wildtype embryos at 72 hpf, 5 μM in the water, assessed 2 hours after tracer injection
Description: (§3) Finally, to test whether activation of PLC rescues phenotypes induced by loss of OCRL1 in an in vivo context, a previously established Ocrl−/− mutant zebrafish model for Lowe syndrome was used (Ramirez I. B. et al., 2012, Hum. Mol. Genet., 21, 1744-59, Oltrabella F., et al., 2015, PLoS Genetics, 11(4):e1005058). Wild type fish were of AB background.
(§4) Lysine-fixable 10 kDa dextran labelled with Alexa 488 (Molecular Probes) was prepared in PBS at 2 μg/μl final concentration. Zebrafish embryos at 72 hpf (hours post fertilisation) were treated for 60 minutes with DMSO control (0.005% DMSO), 5 μM m-3M3FBS or 5 μM o-3M3FBS by addition to the water. Embryos were then anaesthetised with 0.2 mg/ml MS222 (Sigma) in chorion water, and the tracer Alexa 488-10 kDa dextran (green) was injected into the common cardinal vein using a glass micropipette PLI-90 Pico-Injector (Harvard Apparatus). Embryos were returned to the respective drug treatments and incubated at 29° C. Pronephric accumulation was assessed 2 hours after injection on whole mount embryos using a fluorescent dissecting stereomicroscope (Leica MZ10F). Statistical analysis was performed using the Pearson's chi-squared test with Prism software (Prism Software Corporation).

[3] = system: control Drosophila S2 cells; test: Cytokinesis / multinucleation assay in control Drosophila S2 cells; type: cell-based; details: 50 μM, 24 hours
Description: (§5) Drosophila S2 cells were grown in Schneider's Drosophila medium complemented with FBS, Penicillin and Streptomycin (Invitrogen). […] Cells were fixed and labelled for F-Actin (red) and DNA (blue). Images are shown in FIGS. 1(a) to 1(c) in which stars mark multinucleated cells. The histogram of FIG. 2 represents the percentage of multinucleated cells quantified following the indicated treatments. Each P-values were calculated against dOCRL dsRNA treated cells.

[4] = system: renal epithelial cells from a Lowe syndrome patient; test: Abscission assay (time-lapse) in renal epithelial cells from a Lowe syndrome patient; type: cell-based, human; details: 25 μM, 60 hours time-lapse recording
Description: as §1
In this experiment, normal renal epithelial cells from a donor not mutated in OCRL1 and renal epithelial cells from a Lowe syndrome patient were grown in DMEM/F12 (Gibco BRL) supplemented with 10% fetal bovine serum, ITS supplemented, 4 pg/mL triiodothyronine, 36 ng/mL dexamethasone, 10 ng/ml EGF, 100 U/mL penicillin/streptomycin and 2 mM glutamine at 33° C.
as §2, with “3). […] Comparatively, abscission delay observed in Lowe patient cells was not corrected by treatment with o-3M3FBS.” for “5).”

[5] = system: normal renal epithelial cells from a donor not mutated in OCRL1; test: Abscission assay (time-lapse) in normal renal epithelial cells; type: cell-based, human; details: 25 μM, 60 hours time-lapse recording
Description: Further tests were carried out using human cellular models for the Lowe syndrome. […] In this experiment, normal renal epithelial cells from a donor not mutated in OCRL1 and renal epithelial cells from a Lowe syndrome patient were grown in DMEM/F12 (Gibco BRL) supplemented with 10% fetal bovine serum, ITS supplemented, 4 pg/mL triiodothyronine, 36 ng/mL dexamethasone, 10 ng/ml EGF, 100 U/mL penicillin/streptomycin and 2 mM glutamine at 33° C. […] Cell divisions were recorded by time-lapse microscopy using a Nikon Eclipse Ti Inverted Microscope. The curves represent the cumulative distribution of the abscission times in the indicated cell populations (see FIG. 3). […] Comparatively, abscission delay observed in Lowe patient cells was not corrected by treatment with o-3M3FBS.

[6] = system: Ocrl−/− mutant zebrafish embryos; test: Pronephric uptake of Alexa 488-10 kDa dextran in Ocrl−/− mutant zebrafish embryos; type: in vivo; details: OCRL1 mutant embryos at 72 hpf, 5 μM in the water, assessed 2 hours after tracer injection
Description: as §3, §4

[7] = system: dOCRL dsRNA treated Drosophila S2 cells; test: Cytokinesis / multinucleation assay in dOCRL dsRNA treated Drosophila S2 cells; type: cell-based; details: dOCRL depleted S2 cells, 50 μM, 24 hours
Description: as §5

Compound	correction of abscission delay [1]	effect on renal (pronephric) uptake of tracer [2]	effect on cytokinesis (multinucleated cells) [3]	correction of abscission delay [4]	effect on timing of abscission [5]	rescue of endocytosis in the renal tubule (pronephric uptake of tracer) [6]	effect on cytokinesis failure / multi-nucleation rate [7]
Cc1cc(C)c(S(=O)(=O)Nc2cccc(C(F)(F)F)c2)c(C)c1 [m-3M3FBS, 2,4,6-trimethyl-N-(m-3-trifluoromethylphenyl) benzene sulfonamide]	showed correction of the abscission delay	no effect upon renal uptake	did not perturb cytokinesis	fully corrected	not affected	efficiently rescued endocytosis	prevented cytokinesis failure
Cc1cc(C)c(S(=O)(=O)Nc2ccccc2C(F)(F)F)c(C)c1 [o-3M3FBS, reference compound]	no significant effect on abscission	no effect		not corrected		no effect	did not significantly modify the multi-nucleation rate

Source: patent US20200306213A1, “COMPOUNDS FOR USE IN THE TREATMENT OR PREVENTION OF LOWE SYNDROME OR DENT DISEASE AND METHODS THEREFOR” (Université de Montréal, priority 2017, published 2020)
